Numbers after ± are expanded uncertainties.
Assays:
[1] = 298.15 K; 101.33 kPa; Liquid; Vibrating tube method
[2] = refractive index (Na D-line) (dimensionless); settings: 298.15 K; 101.33 kPa; Liquid; Standard Abbe refractometry
[3] = excess molar enthalpy (molar enthalpy of mixing); xn = mol fraction of the nth substance listed; settings: 298.15 K, 101.3 kPa, Liquid, Calvet calorimetry

CCC(C)(C)O [2-methylbutan-2-ol] showed a mass density [1] of 804.8 ± 0.31 kg/m3 and a refractive index [2] of 1.4019 ± 0.0005.
In the case of CCC(C)(C)O [2-methylbutan-2-ol] + CCCCCO, the excess molar enthalpy ([3]; x1 = 0.0899) is reported as -0.0499 ± 0.000574 kcal/mol, the excess molar enthalpy ([3]; x1 = 0.18) is reported as -0.09866 ± 0.000956 kcal/mol and the excess molar enthalpy ([3]; x1 = 0.27) is reported as -0.1359 ± 0.00124 kcal/mol. It also gave an excess molar enthalpy ([3]; x1 = 0.3664) of -0.1551 ± 0.00139 kcal/mol, an excess molar enthalpy ([3]; x1 = 0.4566) of -0.1636 ± 0.00146 kcal/mol and an excess molar enthalpy ([3]; x1 = 0.5468) of -0.1618 ± 0.00143 kcal/mol. For the same compound, the excess molar enthalpy ([3]; x1 = 0.6372) was -0.1515 ± 0.00136 kcal/mol, the excess molar enthalpy ([3]; x1 = 0.7278) was -0.1268 ± 0.00117 kcal/mol and the excess molar enthalpy ([3]; x1 = 0.8185) was -0.09235 ± 0.000908 kcal/mol. For the same compound, the excess molar enthalpy ([3]; x1 = 0.9091) was -0.0493 ± 0.000574 kcal/mol.
With CCC(C)(C)O [2-methylbutan-2-ol] + CCCCO the excess molar enthalpy ([3]; x1 = 0.09) was -0.064 ± 0.000669 kcal/mol, the excess molar enthalpy ([3]; x1 = 0.1801) was -0.1142 ± 0.00108 kcal/mol and the excess molar enthalpy ([3]; x1 = 0.2702) was -0.1553 ± 0.00139 kcal/mol. For the same compound, the excess molar enthalpy ([3]; x1 = 0.3707) was -0.1793 ± 0.00158 kcal/mol, the excess molar enthalpy ([3]; x1 = 0.4609) was -0.1912 ± 0.00167 kcal/mol and the excess molar enthalpy ([3]; x1 = 0.551) was -0.1882 ± 0.00165 kcal/mol. For the same compound, the excess molar enthalpy ([3]; x1 = 0.6412) was -0.1746 ± 0.00153 kcal/mol, the excess molar enthalpy ([3]; x1 = 0.7313) was -0.145 ± 0.00131 kcal/mol and the excess molar enthalpy ([3]; x1 = 0.8198) was -0.102 ± 0.00098 kcal/mol. It also gave an excess molar enthalpy ([3]; x1 = 0.9099) of -0.0509 ± 0.000574 kcal/mol.
For CCC(C)(C)O [2-methylbutan-2-ol] + CCCO, the excess molar enthalpy ([3]; x1 = 0.09) was -0.0608 ± 0.000645 kcal/mol, the excess molar enthalpy ([3]; x1 = 0.1801) was -0.1096 ± 0.00103 kcal/mol and the excess molar enthalpy ([3]; x1 = 0.2802) was -0.1568 ± 0.00141 kcal/mol. It also gave an excess molar enthalpy ([3]; x1 = 0.3701) of -0.1879 ± 0.00165 kcal/mol, an excess molar enthalpy ([3]; x1 = 0.4599) of -0.2053 ± 0.00177 kcal/mol and an excess molar enthalpy ([3]; x1 = 0.5497) of -0.2041 ± 0.00177 kcal/mol. For the same compound, the excess molar enthalpy ([3]; x1 = 0.6395) was -0.1921 ± 0.00167 kcal/mol, the excess molar enthalpy ([3]; x1 = 0.7292) was -0.1605 ± 0.00143 kcal/mol and the excess molar enthalpy ([3]; x1 = 0.8189) was -0.1131 ± 0.00105 kcal/mol. For the same compound, the excess molar enthalpy ([3]; x1 = 0.9088) was -0.0556 ± 0.000621 kcal/mol.
In the case of CCC(C)(C)O [2-methylbutan-2-ol] + CCO, the excess molar enthalpy ([3]; x1 = 0.0898) is reported as -0.0594 ± 0.000645 kcal/mol, the excess molar enthalpy ([3]; x1 = 0.1796) is reported as -0.1128 ± 0.00105 kcal/mol and the excess molar enthalpy ([3]; x1 = 0.2807) is reported as -0.1686 ± 0.00148 kcal/mol. The excess molar enthalpy ([3]; x1 = 0.3707) was -0.2039 ± 0.00177 kcal/mol, the excess molar enthalpy ([3]; x1 = 0.4607) was -0.2271 ± 0.00194 kcal/mol and the excess molar enthalpy ([3]; x1 = 0.5507) was -0.2326 ± 0.00198 kcal/mol. It also gave an excess molar enthalpy ([3]; x1 = 0.6406) of -0.2178 ± 0.00186 kcal/mol, an excess molar enthalpy ([3]; x1 = 0.7306) of -0.1842 ± 0.0016 kcal/mol and an excess molar enthalpy ([3]; x1 = 0.8205) of -0.1302 ± 0.0012 kcal/mol. It also gave an excess molar enthalpy ([3]; x1 = 0.9103) of -0.0648 ± 0.000693 kcal/mol.
For CCC(C)(C)O [2-methylbutan-2-ol] + CO, the excess molar enthalpy ([3]; x1 = 0.0908) was -0.0613 ± 0.000669 kcal/mol, the excess molar enthalpy ([3]; x1 = 0.1814) was -0.1248 ± 0.00115 kcal/mol and the excess molar enthalpy ([3]; x1 = 0.2731) was -0.1921 ± 0.00167 kcal/mol. The excess molar enthalpy ([3]; x1 = 0.3644) was -0.2497 ± 0.00213 kcal/mol, the excess molar enthalpy ([3]; x1 = 0.4608) was -0.2868 ± 0.00239 kcal/mol and the excess molar enthalpy ([3]; x1 = 0.5513) was -0.3031 ± 0.00263 kcal/mol. It also gave an excess molar enthalpy ([3]; x1 = 0.6416) of -0.2905 ± 0.00239 kcal/mol, an excess molar enthalpy ([3]; x1 = 0.7319) of -0.2556 ± 0.00217 kcal/mol and an excess molar enthalpy ([3]; x1 = 0.8195) of -0.1911 ± 0.00167 kcal/mol. For the same compound, the excess molar enthalpy ([3]; x1 = 0.9101) was -0.1008 ± 0.000956 kcal/mol.
In the case of CCCCO [butan-1-ol], the mass density [1] is reported as 805.61 ± 0.31 kg/m3 and the refractive index [2] is reported as 1.3973 ± 0.0005.
CCO [ethanol] gave a mass density [1] of 785.22 ± 0.31 kg/m3 and a refractive index [2] of 1.3591 ± 0.0005.
In the case of CO [methanol], the mass density [1] is reported as 786.42 ± 0.31 kg/m3 and the refractive index [2] is reported as 1.3264 ± 0.0005.
Compound CCCCCO [pentan-1-ol] has a mass density [1] of 810.82 ± 0.31 kg/m3 and a refractive index [2] of 1.4086 ± 0.0005.
Compound CCCO [propan-1-ol] has a mass density [1] of 799.46 ± 0.31 kg/m3 and a refractive index [2] of 1.383 ± 0.0005.
